Measurements reported in ChEMBL document CHEMBL3352214, “Studies on indolizines. Evaluation of their biological properties as microtubule-interacting agents and as melanoma targeting compounds” (Eur J Med Chem, 2015).
pIC50: −log10 of the molar value.

Columns and labels:
[1] = Inhibition of sheep brain tubulin polymerization by fluorescence assay; set-up: species or system Ovis aries
Ovis aries = species on record: Ovis aries; experiment: Inhibition of sheep brain tubulin polymerization at 100 uM by fluorescence assay
[2] = Growth inhibition of human HCT15 cells at 10^-5 M after 48 hrs by SRB assay; type: functional; settings: HCT-15, 48 h, read-out: GI
[3] = Growth inhibition of human SF295 cells at 10^-5 M after 48 hrs by SRB assay; type: functional; settings: SF-295, 48 h, read-out: GI
A498 = experiment: Growth inhibition of human A498 cells at 10^-5 M after 48 hrs by SRB assay; type: functional; settings: A498, 48 h, read-out: GI
HL-60(TB) = experiment: Growth inhibition of human HL-60(TB) cells at 10^-5 M after 48 hrs by SRB assay; type: functional; settings: HL-60, 48 h, read-out: GI
T47D = experiment: Growth inhibition of human T47D cells at 10^-5 M after 48 hrs by SRB assay; type: functional; settings: Homo sapiens, T47D, 48 h; read-out: GI
[4] = Growth inhibition of human HOP92 cells at 10^-5 M after 48 hrs by SRB assay; type: functional; settings: HOP-92, 48 h, read-out: GI
[5] = Growth inhibition of human MOLT4 cells at 10^-5 M after 48 hrs by SRB assay; type: functional; settings: MOLT-4, 48 h, read-out: GI
SNB-75 = experiment: Growth inhibition of human SNB75 cells at 10^-5 M after 48 hrs by SRB assay; type: functional; settings: SNB-75, 48 h, read-out: GI
Malme-3M = experiment: Growth inhibition of human MALME-3M cells at 10^-5 M after 48 hrs by SRB assay; type: functional; settings: read-out: GI
NCI-H522 = experiment: Growth inhibition of human NCI-H522 cells at 10^-5 M after 48 hrs by SRB assay; type: functional; settings: NCI-H522, 48 h, read-out: GI
MDA-MB-435 = experiment: Growth inhibition of human MDA-MB-435 cells at 10^-5 M after 48 hrs by SRB assay; type: functional; settings: MDA-MB-435, 48 h, read-out: GI
[6] = Growth inhibition of human EKVX cells at 10^-5 M after 48 hrs by SRB assay; type: functional; settings: read-out: GI
MCF7 = experiment: Growth inhibition of human MCF7 cells at 10^-5 M after 48 hrs by SRB assay; type: functional; settings: MCF7, 48 h, read-out: GI
[7] = Growth inhibition of human HCT116 cells at 10^-5 M after 48 hrs by SRB assay; type: functional; settings: HCT-116, 48 h, read-out: GI
[8] = Growth inhibition of human PC3 cells at 10^-5 M after 48 hrs by SRB assay; type: functional; settings: PC-3, 48 h, read-out: GI
CAKI-1 = experiment: Growth inhibition of human Caki1 cells at 10^-5 M after 48 hrs by SRB assay; type: functional; settings: CAKI-1, 48 h, read-out: GI

COc1cc([C@@H]2c3cc4c(cc3C[C@H]3COC(=O)[C@@H]32)OCO4)cc(OC)c1OC [DESOXYPODOPHYLLOTOXIN]
pIC50 [1]: 5.75
inhibition (Ovis aries): 100%

CCOC(=O)c1cc(C(=O)c2cc(OC)c(OC)c(OC)c2)n2cc(C)ccc12
pIC50 [1]: 4.47
inhibition (Ovis aries): 73%

CCOC(=O)c1c(C(=O)OCC)c2c(C)cc(C)cn2c1C(=O)c1cc(OC)c(OC)c(OC)c1
pIC50 [1]: 4.03
inhibition (Ovis aries): 58%

CCOC(=O)c1c(C(=O)OCC)c2cccc(C)n2c1C(=O)c1cc(OC)c(OC)c(OC)c1
pIC50 [1]: 3.76
inhibition (Ovis aries): 58%

COC(=O)c1c(C(=O)OC)c2cc(C)ccn2c1C(=O)c1cc(OC)c(OC)c(OC)c1
inhibition of growth at 10 µM [2]: 3%
inhibition of growth at 10 µM [3]: 0%
inhibition of growth at 10 µM (A498): 3%
inhibition of growth at 10 µM (HL-60(TB)): 7%
inhibition of growth at 10 µM (T47D): 3%
inhibition of growth at 10 µM [4]: 5%
inhibition of growth at 10 µM [5]: 4%
inhibition of growth at 10 µM (SNB-75): 7%
inhibition of growth at 10 µM (Malme-3M): 8%
inhibition of growth at 10 µM (NCI-H522): 5%
inhibition of growth at 10 µM (MDA-MB-435): 0%
inhibition of growth at 10 µM [6]: 0%
inhibition of growth at 10 µM (MCF7): 0%
inhibition of growth at 10 µM [7]: 0%
inhibition of growth at 10 µM [8]: 1%
inhibition of growth at 10 µM (CAKI-1): 3%
inhibition (Ovis aries): 2%

CCOC(=O)c1cc(C(=O)c2cc(OC)c(OC)c(OC)c2)n2cccc(C)c12
pIC50 [1]: 4.01
inhibition (Ovis aries): 55%
